Measured values reported in PMC9774128, “New Insights into the Mechanism of Antibacterial Action of Synthetic Peptide Mo-CBP3-PepI against Klebsiella pneumoniae” (Antibiotics, 2022).

Columns and labels:
[1] = test system: K. pneumoniae biofilm; experiment: Antibiofilm assay: inhibition of biofilm formation, crystal violet; type: cell-based, Klebsiella pneumoniae; details: peptide 31.25 μg mL^−1; 48 h, 37 °C; crystal violet O.D. 600 nm; triplicate, three independent experiments
Experimental: The antibiofilm assay was conducted in flat-bottom 96-well polystyrene microplates as described by Neto et al.. A single colony of K. pneumoniae was collected in stock Petri plates containing inoculated Mueller–Hinton agar. The colony was used as inoculum for 5 mL of Mueller–Hinton broth, and the media was incubated for 24 h in the dark at 37 °C. In sequence, the O.D. of the cell suspension was measured using a microplate reader (Epoch, BioTek) and adjusted to 0.1 at 630 nm with Mueller–Hinton broth. For the inhibition of biofilm formation, 50 µL of the cell ([…]) suspension was incubated with 50 µL of the peptide (31.25 μg mL^−1) solution and 50 µL of the respective controls described above. The incubation lasted for 48 h at 37 °C. For the biofilm degradation assay, 50 µL of the cell suspension was incubated for 24 h at 37 °C. After this, 50 µL of the peptide solution and the respective controls were added to the wells containing the preformed biofilm and incubated for 24 h at 37 °C.
After incubation, both wells of biofilm formation inhibition and biofilm degradation were washed once with a sterile saline solution. Then, the wells were fixated with 100 µL methanol 99% for 15 min. […] Then, the crystals stained on the biofilm were diluted with 200 µL of 33% acetic acid, and the O.D was measured using a wavelength of 600 nm. […]

[2] = test system: C. albicans cells; details: cited from earlier work
Excerpt: To answer the second question, it is necessary to understand an essential characteristic of antimicrobial peptides, self-association. Self-association is the ability of antimicrobial peptides to interact during the insertion into the membrane, allowing the formation of a huge pore. […] In this model, a peptide interacts with lipids in the membrane, as described above, to perform the insertion into the membrane. Then, the peptide molecules interact between them to form a huge por ...

[3] = test system: K. pneumoniae (ATCC 10031); experiment: Antibacterial assay (MIC50); type: cell-based, Klebsiella pneumoniae; details: against K. pneumoniae; compared with 31.25 µg mL^−1 of Oliveira et al.
Excerpt: The human-pathogenic Gram-negative bacteria K. pneumoniae (ATCC 10031) strain was obtained from the Laboratory of Plant Toxins (LABTOX) of the Federal University of Ceará (UFC).

[4] = test system: K. pneumoniae cells; experiment: Cell viability by MTT assay, planktonic cells; type: cell-based, Klebsiella pneumoniae; details: peptide at MIC50 31.25 μg mL^−1 (Table 1; method says 1 mg mL^−1), MTT 3 h, 37 °C, absorbance 495 nm
Experimental: The cell viability assay was performed as described by Lima et al., with some adjustments. After the antibacterial assay was completed as described by Oliveira et al., the wells containing the treated cells with Mo-CBP3-PepI at 1 mg mL^−1 and control cells (50 µL) were incubated for 3 h in the dark at 37 °C with 50 µL of 3-(4,5-dimethylthiazol-2-yl)-2,5-diphenyltetrazolium bromide (2 mg mL^−1, MTT). After incubation, 100 µL of 100% DMSO was added to the wells, and the plate was slowly shaken to dissolve the formazan crystals. The absorbance was measured using a microplate reader (Epoch, BioTek) with a wavelength of 495 nm. The controls used for this assay were 5% of dimethyl sulfoxide (DMSO) prepared in 0.15 M NaCl (saline) solution and ciprofloxacin (1000 µg mL^−1) prepared in 5% ethanol in sterile saline solution.

Sequence: CPAIQRCC [Mo-CBP3-PepI]
- Inhibition of Biofilm Formation (%) [1]: 11.87 ± 0.001%
- pore size [2]: 10 kDa
- MIC50, experiments repeated here [3]: same results
- Cell Viability (%) [4]: 47.54 ± 0.008%
